Measurements taken from patent US20240016781A1, “TREATMENT OF KRAS MUTANT CANCERS” (MEI Pharma, Inc., priority 2020, published 2024).
Where two headings read alike, the source gives them in different places.

How the values were obtained:
Test in all cases: 72-hour CellTiter-Glo 2.0 growth inhibition screen (single agent, 9x9 combination dose matrix)
Assay type in all cases: cell-based
SW837 = details: for EC50: SW837, 72 h
Description: (§1) Growth inhibition was determined using a 72-hour CellTiter-Glo®2.0 proliferation assay. Combination format was a 9×9 dose matrix. Six of the 20 cell lines received the original two combinations whilst the remaining 14 cell lines received two additional combinations resulting in four combinations in total. Results have been supplied as both Chalice Analyzer files (.mcc) and raw luminescence data.
(§2) Cell lines that have been preserved in liquid nitrogen are thawed and expanded in growth media (see Appendix I). Once cells have reached expected doubling times, screening begins. Cells are seeded in 25 μl of growth media in black 384-well tissue culture treated plates at 500 cells per well (as noted in Analyzer). Cells are equilibrated in assay plates via centrifugation and placed at 37° C. 5% CO2 for twenty-four hours before treatment. […] Compounds are transferred to assay plates using and Echo acoustic liquid handling system. […] of each compound was added at the appropriate concentration for all combination dose points. Therefore, final assay volume would be 25.05 μl. Assay plates are incubated with compound for 3 days and are then analyzed using CellTiter-Glo 2.0. All data points are collected via automated processes and are subject to quality control and analyzed.
(§3) If T≥V_0:100*(1−(T−V_0)/(V−V_0)) • where T is the signal measure for a test article, V is the untreated/vehicle-treated control measure, and Vo is the untreated/vehicle control measure at time zero (also colloquially referred as TO plates). This formula is derived from the Growth Inhibition calculation used in the National Cancer Institute's NCI-60 high throughput screen. For the purposes of this disclosure, all data analysis was performed in Growth Inhibition (except where noted).
(§4) Inhibition is also provided as a measure of cell viability. […] Inhibition of 100% represents no doubling of cell numbers during the treatment window. Both cytostatic and cytotoxic treatments can yield an Inhibition percentage of 100%. Inhibition percentage is calculated as the following: […]
(§5) The fractional inhibition for each component agent and combination point in the matrix is calculated relative to the median of all untreated/vehicle-treated control wells. The Synergy Score equation integrates the experimentally-observed activity volume at each point in the matrix in excess of a model surface numerically derived from the activity of the component agents using the Loewe model for additivity. Additional terms in the Synergy Score equation (above) are used to normalize for various dilution factors used for individual agents and to allow for comparison of synergy scores across an entire experiment. The inclusion of positive inhibition gating or an Idata multiplier removes noise near the zero-effect level, and biases results for synergistic interactions at that occur at high activity levels. Combinations with higher maximum Growth Inhibition (GI) effects or those which are synergistic at low concentrations will have higher Synergy Scores.
(§6) The CI is a rough estimate of how much drug was needed in combination relative to the single agent doses required to achieve the chosen effect level. CI values in the range of 0.5-0.7 are typical for in vitro measurements of current clinical combinations. The CI error (σCI) is calculated using standard error propagation through the CI calculation based on the isobologram errors. In the Chalice Analyzer, the Best CI is reported from the many CI values calculated for each Icut crossing combination. Among all the measured CI values, the one with the largest single-to-noise level (1−CI)/σCI is reported as the Best CI. Best CI Level is the effect level from which the CI is calculated.

HCC1171 = system: HCC1171
Description: as §1, §2, §3, §4, §5, §6

SW48 KRAS (G12C/+) = details: for EC50: SW48, 72 h, read-out: EC50
Description: as §1, §2, §3, §4, §5, §6

AsPC-1 = details: for EC50: ASPC1, 72 h
Description: as §1, §2, §3, §4, §5, §6

NCI-H358 = details: for EC50: NCI-H358, 72 h
Description: as §1, §2, §3, §4, §5, §6

[1] = Homo sapiens, SW837, Colorectal, Additional Single Agent Responses (inhibition, % I), 72 h
[2] = Homo sapiens, SW837, Colorectal, growth inhibition (GI) curve, single agent, 72 h
[3] = SW837 (KRAS G12C), enhancer + MEI-522 (Voruciclib), 72 h
[4] = enhancer combined with MEI-522 (Voruciclib), SW837 (Colorectal), 72 hours, inhibition data
[5] = HCC1171 (KRAS G12C), enhancer + MEI-522 (Voruciclib), 72 h
[6] = HCC1171, Lung, Additional Single Agent Responses (inhibition, % I), 72 h
[7] = enhancer combined with MEI-522 (Voruciclib), HCC1171 (Lung), 72 hours, inhibition data
[8] = Homo sapiens, SW48 KRAS (G12C/+), Colorectal, Additional Single Agent Responses (inhibition, % I), 72 h
[9] = Homo sapiens, SW48 KRAS (G12C/+), Colorectal, growth inhibition (GI) curve, single agent, 72 h
[10] = SW48 KRAS (G12C/+), enhancer + MEI-522 (Voruciclib), 72 h
[11] = enhancer combined with MEI-522 (Voruciclib), SW48 KRAS (G12C/+) (Colorectal), 72 hours, inhibition data
[12] = AsPC-1 (KRAS G12D), enhancer + MEI-522 (Voruciclib), 72 h
[13] = enhancer combined with MEI-522 (Voruciclib), AsPC-1 (Pancreas), 72 hours, inhibition data
[14] = NCl-H358 (KRAS G12C), enhancer + MEI-522 (Voruciclib), 72 h
[15] = enhancer combined with MEI-522 (Voruciclib), NCl-H358 (Lung), 72 hours, inhibition data

## CC[C@@H]1C(=O)N(C)c2cnc(Nc3ccc(C(=O)N[C@H]4CC[C@H](N5CCN(CC6CC6)CC5)CC4)cc3OC)nc2N1C(C)C [Volasertib]
SW837; [1]
  EC50: 13.8 nM
  IC50: 21 nM
SW837; [2]
  EC50: 20.1 nM
  GI50: 14.8 nM
SW837; Homo sapiens, SW837, Colorectal, Additional Single Agent Responses, 72 h, read-out: Max Response (% I)
  Emax: 79%
SW837; Homo sapiens, SW837, Colorectal, growth inhibition (GI), single agent, 72 h, read-out: Max Response (% GI)
  Emax: 128%
SW837; [3]
  Best CI: 0.72
  Bliss Volume: 4.69
  HSA volume: 2.14
  Loewe Volume: 0.39
  Synergy Score: 5.42
SW837; SW837, Colorectal, Additional Single Agent Responses (inhibition, % I), 72 h
  Response Area: 3.61
SW837; SW837, Colorectal, growth inhibition (GI), AUC, single agent, 72 h
  Response Area: 5.63
SW837; [4]
  Best CI: 0.83
  Best CI Level: 20
  Bliss Volume: 0.17
  HSA volume: 1.01
  Loewe Volume: 0.29
  Synergy Score: 1.39
HCC1171; [5]
  Best CI: 0.95
  Bliss Volume: −2.15
  HSA volume: −1.49
  Loewe Volume: −1.27
  Synergy Score: 2.07
HCC1171; [6]
  EC50: 4.7 nM
  Response Area: 1.99
HCC1171; HCC1171, Lung, Additional Single Agent Responses, 72 h, read-out: Max Response (% I)
  Emax: 45%
HCC1171; HCC1171, Lung, growth inhibition (GI) curve, single agent, 72 h
  GI50: 5.3 nM
HCC1171; HCC1171, Lung, growth inhibition (GI), AUC, single agent, 72 h
  Response Area: 3.40
HCC1171; HCC1171, Lung, growth inhibition (GI), single agent, 72 h, read-out: Max Response (% GI)
  Emax: 79%
HCC1171; [7]
  Best CI: 0.79
  Bliss Volume: −3.18
  HSA volume: −0.81
  Loewe Volume: −0.71
  Synergy Score: 0.73
HCC1171; enhancer combined with MEI-522 (Voruciclib), HCC1171 (Lung), 72 hours, inhibition data, unit assumed
  Best CI Level: 50%
SW48 KRAS (G12C/+); [8]
  EC50: 4.3 nM
  IC50: 4.6 nM
SW48 KRAS (G12C/+); [9]
  EC50: 4.4 nM
  GI50: 4.4 nM
SW48 KRAS (G12C/+); Homo sapiens, SW48 KRAS (G12C/+), Colorectal, Additional Single Agent Responses, 72 h, read-out: Max Response (% I)
  Emax: 90%
SW48 KRAS (G12C/+); Homo sapiens, SW48 KRAS (G12C/+), Colorectal, growth inhibition (GI), single agent, 72 h, read-out: Max Response (% GI)
  Emax: 141%
SW48 KRAS (G12C/+); SW48 KRAS (G12C/+), Colorectal, Additional Single Agent Responses (inhibition, % I), 72 h
  Response Area: 3.98
SW48 KRAS (G12C/+); SW48 KRAS (G12C/+), Colorectal, growth inhibition (GI), AUC, single agent, 72 h
  Response Area: 5.48
SW48 KRAS (G12C/+); [10]
  Best CI: 0.08
  Bliss Volume: 5.42
  HSA volume: 1.24
  Loewe Volume: 2.81
  Synergy Score: 11.77
SW48 KRAS (G12C/+); [11]
  Best CI: 0.13
  Best CI Level: 80
  Bliss Volume: −0.04
  HSA volume: 0.65
  Loewe Volume: 1.39
  Synergy Score: 3.33
AsPC-1; [12]
  Best CI: 0.51
  Bliss Volume: −1.02
  HSA volume: 0.04
  Loewe Volume: −0.85
  Synergy Score: 1.87
AsPC-1; AsPC-1, Pancreas, Additional Single Agent Responses (inhibition, % I), 72 h
  Response Area: 3.11
AsPC-1; AsPC-1, Pancreas, growth inhibition (GI), AUC, single agent, 72 h
  Response Area: 4.36
AsPC-1; Homo sapiens, AsPC-1, Pancreas, Additional Single Agent Responses (inhibition, % I), 72 h
  EC50: 12.2 nM
AsPC-1; Homo sapiens, AsPC-1, Pancreas, growth inhibition (GI) curve, single agent, 72 h
  EC50: 12.2 nM
AsPC-1; Homo sapiens, ASPC1, AsPC-1, Pancreas, Additional Single Agent Responses (inhibition, % I), 72 h
  IC50: 23.1 nM
AsPC-1; Homo sapiens, ASPC1, AsPC-1, Pancreas, Additional Single Agent Responses, 72 h, read-out: Max Response (% I)
  Emax: 69%
AsPC-1; Homo sapiens, ASPC1, AsPC-1, Pancreas, growth inhibition (GI) curve, single agent, 72 h
  GI50: 13.7 nM
AsPC-1; Homo sapiens, ASPC1, AsPC-1, Pancreas, growth inhibition (GI), single agent, 72 h, read-out: Max Response (% GI)
  Emax: 96%
AsPC-1; [13]
  Best CI: 0.89
  Best CI Level: 20
  Bliss Volume: −2.24
  HSA volume: −0.18
  Loewe Volume: −0.80
  Synergy Score: 0.83
NCI-H358; Homo sapiens, NCl-H358, Lung, Additional Single Agent Responses (inhibition, % I), 72 h
  EC50: 6.1 nM
NCI-H358; Homo sapiens, NCl-H358, Lung, growth inhibition (GI) curve, single agent, 72 h
  EC50: 6.1 nM
NCI-H358; Homo sapiens, NCI-H358, NCl-H358, Lung, Additional Single Agent Responses (inhibition, % I), 72 h
  IC50: 7.8 nM
NCI-H358; Homo sapiens, NCI-H358, NCl-H358, Lung, Additional Single Agent Responses, 72 h, read-out: Max Response (% I)
  Emax: 75%
NCI-H358; Homo sapiens, NCI-H358, NCl-H358, Lung, growth inhibition (GI) curve, single agent, 72 h
  GI50: 6.5 nM
NCI-H358; Homo sapiens, NCI-H358, NCl-H358, Lung, growth inhibition (GI), single agent, 72 h, read-out: Max Response (% GI)
  Emax: 100%
NCI-H358; [14]
  Bliss Volume: −1.58
  HSA volume: −4.12
  Loewe Volume: −3.93
  Synergy Score: 3.21
NCI-H358; NCl-H358, Lung, Additional Single Agent Responses (inhibition, % I), 72 h
  Response Area: 3.44
NCI-H358; NCl-H358, Lung, growth inhibition (GI), AUC, single agent, 72 h
  Response Area: 4.57
NCI-H358; [15]
  Best CI: 0.80
  Best CI Level: 20
  Bliss Volume: −4.08
  HSA volume: −3.08
  Loewe Volume: −3.28
  Synergy Score: 0.69
